Measurements: ChEMBL document CHEMBL1201862, “PubChem BioAssay data set” (2004)
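Growth conditions: 96-well plates. Treatment: test compound, 48 hours, 5 concentrations. Analysis: linear interpolation between bracketing concentrations; unreached endpoints set to highest concentration. At the GI50, growth is halved.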 Calls of active or inactive are those of the source. Cut-off read from the data, not from the text of the source: active = GI50 up to about 1.1 µM and inactive = higher.

Legend:
Test in all cases: DTP human tumour cell line panel, 48 h
SK-MEL-2 = system: SK-MEL-2
SK-MEL-5 = system: SK-MEL-5
HT-29 = system: HT-29
CAKI-1 = system: CAKI-1
Malme-3M = system: Malme-3M
SF-268 = system: SF-268
NCI-H460 = system: NCI-H460
SK-OV-3 = system: SK-OV-3
LOX IMVI = system: LOX IMVI
K562 = system: K562
NCI-H23 = system: NCI-H23
NCI-H226 = system: NCI-H226
UACC-62 = system: UACC-62
OVCAR-8 = system: OVCAR-8
IGROV-1 = system: IGROV-1
KM12 = system: KM12
OVCAR-4 = system: OVCAR-4
HCT-15 = system: HCT-15
SR = system: SR
A549 = system: A549
786-0 = system: 786-0
RXF 393 = system: RXF 393
TK-10 = system: TK-10
SF-539 = system: SF-539
COLO 205 = system: COLO 205
SW-620 = system: SW-620
MOLT-4 = system: MOLT-4
SF-295 = system: SF-295
HOP-62 = system: HOP-62
LXFL 529 = system: LXFL 529
DLD-1 = system: DLD-1
CCRF-CEM = system: CCRF-CEM
SNB-75 = system: SNB-75
UO-31 = system: UO-31
HL-60 = system: HL-60
OVCAR-5 = system: OVCAR-5
RPMI-8226 = system: RPMI-8226
HOP-92 = system: HOP-92
U-251 = system: U-251
M14 = system: M14
DMS-273 = system: DMS-273
M19-MEL = system: M19-MEL
UACC-257 = system: UACC-257
HCT-116 = system: HCT-116
DMS-114 = system: DMS-114
SN12C = system: SN12C
HOP-18 = system: HOP-18
A498 = system: A498
ACHN = system: ACHN
NCI-H522 = system: NCI-H522
SNB-19 = system: SNB-19
OVCAR-3 = system: OVCAR-3
KM-20L2 = system: KM-20L2
SNB-78 = system: SNB-78
SK-MEL-28 = system: SK-MEL-28
HCC 2998 = system: HCC 2998
EKVX = system: EKVX
XF498 = system: XF498

COc1ccc(C2S/C(=C\c3ccc(OC)cc3OC)C(=O)N2NC(=O)Cc2ccccc2)cc1 (configuration not stated)
GI50 (SK-MEL-2): > 100 µM (inactive)
GI50 (SK-MEL-5): > 100 µM (inactive)
GI50 (HT-29): > 100 µM (inactive)
GI50 (CAKI-1): > 100 µM (inactive)
GI50 (Malme-3M): > 100 µM (inactive)
GI50 (SF-268): > 100 µM (inactive)
GI50 (NCI-H460): > 100 µM (inactive)
GI50 (SK-OV-3): > 100 µM (inactive)
GI50 (LOX IMVI): > 100 µM (inactive)
GI50 (K562): 98.9 µM (inactive)
GI50 (NCI-H23): > 100 µM (inactive)
GI50 (NCI-H226): > 100 µM (inactive)
GI50 (UACC-62): > 100 µM (inactive)
GI50 (OVCAR-8): > 100 µM (inactive)
GI50 (IGROV-1): > 100 µM (inactive)
GI50 (KM12): > 100 µM (inactive)
GI50 (OVCAR-4): > 100 µM (inactive)
GI50 (HCT-15): > 100 µM
GI50 (SR): > 100 µM (inactive)
GI50 (A549): > 100 µM (inactive)
GI50 (786-0): > 100 µM (inactive)
GI50 (RXF 393): > 100 µM (inactive)
GI50 (TK-10): > 100 µM (inactive)
GI50 (SF-539): > 100 µM (inactive)
GI50 (COLO 205): > 100 µM (inactive)
GI50 (SW-620): > 100 µM (inactive)
GI50 (MOLT-4): > 100 µM (inactive)
GI50 (SF-295): > 100 µM (inactive)
GI50 (HOP-62): > 100 µM (inactive)
GI50 (LXFL 529): > 100 µM (inactive)
GI50 (DLD-1): > 100 µM (inactive)
GI50 (CCRF-CEM): 89.5 µM (inactive)
GI50 (SNB-75): > 100 µM (inactive)
GI50 (UO-31): > 100 µM (inactive)
GI50 (HL-60): 97.9 µM (inactive)
GI50 (OVCAR-5): > 100 µM (inactive)
GI50 (RPMI-8226): > 100 µM (inactive)
GI50 (HOP-92): > 100 µM (inactive)
GI50 (U-251): > 100 µM (inactive)
GI50 (M14): > 100 µM (inactive)
GI50 (DMS-273): > 100 µM (inactive)
GI50 (M19-MEL): > 100 µM (inactive)
GI50 (UACC-257): > 100 µM (inactive)
GI50 (HCT-116): > 100 µM (inactive)
GI50 (DMS-114): > 100 µM (inactive)
GI50 (SN12C): > 100 µM (inactive)
GI50 (HOP-18): > 100 µM (inactive)
GI50 (A498): > 100 µM (inactive)
GI50 (ACHN): > 100 µM (inactive)
GI50 (NCI-H522): > 100 µM (inactive)

COC(=O)c1ccc(Cl)cc1NC(=O)C1CCCCC1
GI50 (SK-MEL-2): > 100 µM (inactive)
GI50 (HT-29): > 100 µM (inactive)
GI50 (CAKI-1): > 100 µM (inactive)
GI50 (Malme-3M): > 100 µM (inactive)
GI50 (SF-268): > 100 µM (inactive)
GI50 (K562): > 100 µM (inactive)
GI50 (NCI-H23): > 100 µM (inactive)
GI50 (NCI-H226): > 100 µM (inactive)
GI50 (OVCAR-8): > 100 µM (inactive)
GI50 (KM12): > 100 µM (inactive)
GI50 (OVCAR-4): > 100 µM (inactive)
GI50 (HCT-15): > 100 µM
GI50 (SR): > 100 µM (inactive)
GI50 (A549): > 100 µM (inactive)
GI50 (786-0): > 100 µM (inactive)
GI50 (RXF 393): 20.3 µM (inactive)
GI50 (TK-10): 40 µM (inactive)
GI50 (SNB-19): > 100 µM (inactive)
GI50 (SF-539): > 100 µM (inactive)
GI50 (COLO 205): > 100 µM (inactive)
GI50 (SW-620): > 100 µM (inactive)
GI50 (OVCAR-3): > 100 µM (inactive)
GI50 (MOLT-4): > 100 µM (inactive)
GI50 (SF-295): > 100 µM (inactive)
GI50 (LXFL 529): > 100 µM (inactive)
GI50 (UO-31): 3.53 µM (inactive)
GI50 (KM-20L2): > 100 µM (inactive)
GI50 (SNB-78): > 100 µM (inactive)
GI50 (OVCAR-5): > 100 µM (inactive)
GI50 (RPMI-8226): > 100 µM (inactive)
GI50 (HOP-92): > 100 µM (inactive)
GI50 (U-251): > 100 µM (inactive)
GI50 (SK-MEL-28): > 100 µM (inactive)
GI50 (DMS-273): > 100 µM (inactive)
GI50 (M19-MEL): > 100 µM (inactive)
GI50 (UACC-257): > 100 µM (inactive)
GI50 (HCC 2998): > 100 µM (inactive)
GI50 (HCT-116): > 100 µM (inactive)
GI50 (EKVX): > 100 µM (inactive)
GI50 (DMS-114): > 100 µM (inactive)
GI50 (SN12C): > 100 µM (inactive)
GI50 (ACHN): > 100 µM (inactive)
GI50 (NCI-H522): > 100 µM (inactive)

CC1=N/C(=C\c2ccc(C)cc2)C(=O)O1
GI50 (SK-MEL-2): > 100 µM (inactive)
GI50 (SK-MEL-5): > 100 µM (inactive)
GI50 (HT-29): > 100 µM (inactive)
GI50 (CAKI-1): > 100 µM (inactive)
GI50 (Malme-3M): > 100 µM (inactive)
GI50 (SK-OV-3): > 100 µM (inactive)
GI50 (K562): > 100 µM (inactive)
GI50 (NCI-H23): > 100 µM (inactive)
GI50 (UACC-62): > 100 µM (inactive)
GI50 (OVCAR-8): > 100 µM (inactive)
GI50 (IGROV-1): > 100 µM (inactive)
GI50 (XF498): > 100 µM (inactive)
GI50 (KM12): > 100 µM (inactive)
GI50 (OVCAR-4): > 100 µM (inactive)
GI50 (HCT-15): > 100 µM
GI50 (SR): > 100 µM (inactive)
GI50 (RXF 393): > 100 µM (inactive)
GI50 (TK-10): > 100 µM (inactive)
GI50 (SNB-19): > 100 µM (inactive)
GI50 (COLO 205): > 100 µM (inactive)
GI50 (SW-620): > 100 µM (inactive)
GI50 (OVCAR-3): > 100 µM (inactive)
GI50 (MOLT-4): > 100 µM (inactive)
GI50 (SF-295): > 100 µM (inactive)
GI50 (LXFL 529): > 100 µM (inactive)
GI50 (DLD-1): > 100 µM (inactive)
GI50 (CCRF-CEM): > 100 µM (inactive)
GI50 (UO-31): > 100 µM (inactive)
GI50 (KM-20L2): > 100 µM (inactive)
GI50 (SNB-78): > 100 µM (inactive)
GI50 (OVCAR-5): > 100 µM (inactive)
GI50 (HOP-92): > 100 µM (inactive)
GI50 (U-251): > 100 µM (inactive)
GI50 (SK-MEL-28): > 100 µM (inactive)
GI50 (M14): > 100 µM (inactive)
GI50 (M19-MEL): > 100 µM (inactive)
GI50 (HCC 2998): > 100 µM (inactive)
GI50 (SN12C): > 100 µM (inactive)
GI50 (NCI-H522): > 100 µM (inactive)
